Data published in article PMC4550478, “Metronidazole-triazole conjugates: Activity against Clostridium difficile and parasites” (European Journal of Medicinal Chemistry, 2015).
≈ marks a conversion by molar mass, not a printed value.

Columns and labels:
[1] = tested on: C. difficile 630 ATCC BAA-1382; experiment: MIC broth microdilution, C. difficile 630; format: cell-based, Clostridium difficile; settings: Clostridioides difficile, ATCCBAA1382, MtzS, 24 h, median of at least n = 4
Description: (§1) All compounds were tested for activity against a set of anaerobic C. difficile bacteria (630 ATCC BAA-1382, NAP1/027 M7404, NAP1/027 ATCC BAA-1803, VPI10463 ATCC 43255, CD26A54_S and CD26A54_R) and representative ESKAPE pathogens S. aureus (MRSA ATCC 43300), E. coli (ATCC 25922), K. pneumoniae (ATCC 700603), A. baumannii (ATCC 19606) and P. aeruginosa (ATCC 27853) using a standard broth microdilution assay. Selected compounds were tested for activity against H. pylori strains (26695, and clinical isolates MtzS 13/25, MtzR 98/285 and MtzR 13/61) using agar plate dilution, and for antimicrobial activity against […] Gram-positive bacterial strains: Enterococcus faecalis (VanA clinical isolate), Enterococcus faecium (MDR VanA ATCC 51559), Streptococcus pneumoniae (MDR ATCC 700677), S. aureus (MRSA ATCC 43300, MRSA clinical isolate, MRSA/DRSA clinical isolate, GISA NARSA NRS 1, GISA NARSA NRS 17, VRSA NARSA VRS1, VRSA NARSA VRS4 and VRSA NARSA VRS10) using broth microdilution. C. difficile strains were grown at 37 °C in a COY anaerobic chamber (5% H2, 10% CO2, 85% N2). H. pylori strains were grown at 37 °C under a microaerobic atmosphere (5% O2, 10% CO2). All facultative anaerobic bacteria were grown at 37 °C with normal atmospheric oxygen levels. All experiments were performed in duplicate with metronidazole, vancomycin, linezolid or colistin as positive controls for relevant strains (see Table 1). Positive growth control of bacteria and DMSO as well as a negative control of only media were included for every plate. Full assay details are provided in the supplementary information.
C. difficile ATCC BAA-1382, ATCC BAA-1803, ATCC 43255 and M7404 heat shocked spore stocks (10 µL) were transferred into the anaerobic chamber and 10 µL streaked onto pre-reduced (at least 2.5 hr in anaerobic chamber) BHIS agar plates supplemented with 0.1% w/v sodium taurocholate (BHIS(TA)). Plates were incubated for 24 hours prior to assay to give colonies of size 1-3mm diameter with characteristic uneven borders.
The minimum inhibition concentration was determined according to the CLSI Methods with modifications in broth and inoculum for C. difficile according to Babakhani et al.^7,8 Briefly, compounds were prepared to 20X final concentration in 100% water, 60% DMSO and 40% water or 60% DMSO and 40% media. The compounds along with standard antibiotics were serially diluted two-fold across the wells of 96-well non-binding surface plates (Non binding surface, Corning). The plates were placed in the anaerobic chamber overnight to reduce. C. difficile bacteria from BHIS(TA) agar plates were cultured anaerobically in BHIS at 37 °C overnight. A sample of culture was then diluted 40-fold in BHIS broth and incubated at 37 °C for approximately 4.5 hrs. The resultant mid-log phase culture (OD600= 0.5-0.6) was diluted to the final concentration of ~1×10^6 CFU/mL, then 50 µL was added to each well of the compound-containing 96-well plates. This gave final cell concentration of 5×10^5 CFU/mL, final volume 100 µL and 3% maximum DMSO concentration. Compound concentration was typically from 64 to 0.03 µg/mL. An antibiotic standard was included on each 96 well plate as well as a positive growth control (no compound) and sterility control (no bacteria). All the plates were covered and incubated at 37 °C for 24 h. MICs were the lowest concentration showing no visible growth.

[2] = MIC broth microdilution, drug resistant Gram-positive panel; format: cell-based; settings: all strains of the panel; read-out: MIC against panel of drug resistant Gram-positive strains
Description: as §1
MICs were determined by a two-fold serial broth micro dilution according to the recommendation of CLSI standards with an inoculum of 5 × 10^5 CFU/mL^4 The compounds along with standard antibiotics were serially diluted twofold across the wells of 96-well non-binding surface plates (NBS, Corning). Standards ranged from 64 to 0.03 μg/mL, and the compounds from 128 to 0.06 μg/mL with final volumes of 50 μL per well. Gram-positive and Gram-negative bacteria were cultured in Mueller Hinton broth (MHB) (Bacto laboratories, Cat. no. 211443) at 37 °C overnight. A sample of each culture was then diluted 40-fold in fresh MHB broth and incubated at 37 °C for 2-3 h. The resultant mid-log phase cultures were diluted to the final concentration of 5 × 10^5 CFU/mL, then 50 μL was added to each well of the compound containing 96-well plates. All the plates were covered and incubated at 37 °C for 24 h.

H. pylori 26695 = experiment: MIC agar dilution, H. pylori 26695; format: cell-based; settings: Helicobacter pylori, MtzS, microaerobic
Description: as §1
(§2) Helicobacter pylori strains, with a range of resistance levels to metronidazole (256 µg/ml, 64 µg/ml, 24 µg/ml, 2 µg/ml, and 0.04 µg/ml), were selected and obtained from Helicobacter Research Laboratory, University of Western Australia. The resistance strength to metronidazole was recorded according to eTest (bioMérieux). H. pylori strain 26695 was used as the control. H. pylori was maintained on the non-selective Columbia blood agar plates (CBA) (Columbia agar base Oxoid) with 5% horse blood and incubated at 37 °C and 10% CO2 for 48 hrs. […] Each of the H. pylori strains were harvested, OD600 calibrated to 0.3, and spotted in triplicate on CBA pre-mixed with the compound. The lowest concentration of antibiotic showing no growth was read as the MIC. The experiment was performed in duplicate.

[3] = tested on: H. pylori clinical isolate 13/25; experiment: MIC agar dilution, H. pylori 13/25; format: cell-based; settings: Helicobacter pylori, MtzS clinical isolate
Description: as §1, §2

[4] = tested on: H. pylori clinical isolate 98/285; experiment: MIC agar dilution, H. pylori 98/285; format: cell-based; settings: Helicobacter pylori, MtzR clinical isolate
Description: as §1, §2

[5] = tested on: H. pylori clinical isolate 13/61; experiment: MIC agar dilution, H. pylori 13/61; format: cell-based; settings: Helicobacter pylori, MtzR clinical isolate
Description: as §1, §2

[6] = tested on: G. lamblia BRIS/83/HEPU/106 (106); design: method as in earlier work; settings: MtzS, crude Mtz-triazoles (>85% purity), ref 15 (Miyamoto et al.); read-out: EC50 G. lamblia 106, Lit.; cited from earlier work
[7] = tested on: G. lamblia BRIS/87/HEPU/713 (713); design: method as in earlier work; settings: MtzS, crude Mtz-triazoles (>85% purity), ref 15 (Miyamoto et al.); read-out: EC50 G. lamblia 713, Lit.; cited from earlier work
G. lamblia 713-M3 (713M) = tested on: G. lamblia 713-M3 (713M); design: method as in earlier work; settings: MtzR, crude Mtz-triazoles (>85% purity), ref 15 (Miyamoto et al.); read-out: EC50 G. lamblia 713M, Lit.; cited from earlier work

SMILES	MIC [1] [µg/mL]	MIC [2] [µg/mL]	MIC (H. pylori 26695) [µg/mL]	MIC [3] [µg/mL]	MIC [4] [µg/mL]	MIC [5] [µg/mL]	EC50 [6] [nM]	EC50 [7] [nM]	EC50 (G. lamblia 713-M3 (713M)) [nM]
Cc1ncc([N+](=O)[O-])n1CCn1cc(CO)nn1 [Compound 4q, 1-(2-(2-methyl-5-nitro-1H-imidazol-1-yl)ethyl)-4-(hydroxymethyl)-1H-1,2,3-triazole]	16 (≈ 63.4 µM)	> 64	–	–	–	–	–	–	–
Cc1ncc([N+](=O)[O-])n1CCO [Compound 1, metronidazole]	0.5 (≈ 2.92 µM)	> 64	8 (≈ 46.7 µM)	4 to 8 (≈ 23.4 to 46.7 µM)	64 (≈ 374 µM)	32 to 64 (≈ 187 to 374 µM)	3600	2000	50000
Cc1ncc([N+](=O)[O-])n1CCn1cc(-c2ccccc2)nn1 [Compound 4a, 1-(2-(2-methyl-5-nitro-1H-imidazol-1-yl)ethyl)-4-phenyl-1H-1,2,3-triazole]	0.5 (≈ 1.68 µM)	> 64	–	–	–	–	260	160	5300
